Experimental data from patent US20210393724A1, “MEDICINE FOR TREATMENT OF PSORIASIS AND PRODUCTION METHOD THEREOF” (YEDITEPE UNIVERSITESI, priority 2018, published 2021).

System: IMQ-induced psoriasis inflammation
Assay: IMQ-induced psoriasis mouse model: PASI scoring, ear thickness, spleen/body weight
Format: in vivo, BALB/c mice
Conditions: MTX 1 mg/kg orally per day
Description: The cream named Aldara (Meda Pharma, 3M Health Care) containing 5% Imiquimib (IMQ) was administered once a day for 6 days on the shaved backs and right ears of 8-11 weeks old adult male BALB/c mice such that a total of 62.5 mg cream is applied per day per animal thereby psoriasis inflammation was produced in the animal model. Vaseline was applied to the shaved area of the animals in the control group. The positive control group received 1 mg/kg Mtx (Methotrexate) orally per day. The drug was administered orally at a dose of 5 mg/kg once a day during the experiment. Administration of the drug to the animals in the group where the semi-therapeutic effect of the drug was to be tested was initiated 1 day after the onset of induction of psoriasis with IMQ, and continued until the end of the experiment period. Body weight, and redness, flaking and thickening on the skin were daily measured and scored according to the Psoriasis Area Severity. Index (PASI) to monitor the general health status of the animals and the induction of psoriasis with IMQ. As required by the model, thickening of the right ear skin was also recorded on a regular basis since the day the experiments began. At the end of the application, animals were anesthetized by isoflurane and then euthanized by cervical dislocation. The size and weight of the spleen tissues were recorded.

Q: How did the “plaque formation (scaling) PASI score of IMQ-administered region on the back” value (as of the 4th day) turn out when `CN(Cc1cnc2nc(N)nc(N)c2n1)c1ccc(C(=O)N[C@@H](CCC(=O)O)C(=O)O)cc1` [MTX, Methotrexate] was run?
A: decreased

Q: And the “total PASI score” value (as of the 4th day)?
A: Decrease

Q: What about the “thickness PASI score of IMQ-administered region on the back” value (as of the 5th day) of the same compound?
A: decreased
